Assay results as given in patent publication US20210369874A1, “COMPOSITION FOR DETECTING BIOFILMS ON VIABLE TISSUES” (CONVATEC TECHNOLOGIES INC., priority 2010, published 2021).
Several values for one entry are separate records, joined by “and”; a condition that tells them apart may be missing. Equal values may be shown once.

Assays:
Assay type in all cases: cell-based
[1] = test system: mixed biofilms of Staphylococcus aureus and Pseudomonas aeruginosa; assay: Assessment of biofilm stains using the constant-depth biofilm fermenter (CDFF); conditions: 100 μM stain, two minutes, 4-day mixed biofilms, n=6
Excerpt: A constant depth biofilm fermenter (CDFF) was used to culture 4-day mixed biofilms of Staphylococcus aureus and Pseudomonas aeruginosa. Briefly, biofilms were formed in recesses in 15 PTFE pans around the rim of a rotating steel turntable onto which inoculum or sterile growth media was allowed to steadily drip. A scraper bar distributed bacterial inoculum or media over the pans as the turntable rotated, maintaining the biofilms at a steady depth. Each pan contained 5 removable plugs, 4 mm in diameter which were recessed to a depth of 300 μm. The resulting biofilms that grew in the plug recesses were reproducible in terms of appearance and microbiological composition and could be removed from the CDFF through a sampling port using sterile instruments. […] Absorption spectra of the aspired supernatants were then measured in a spectrophotometer and these spectra compared to spectra of known concentrations (100 μM) of each stain in 2% SDS.

P. aeruginosa biofilms = assay: Rose Bengal staining of biofilms, membrane filter biofilm model (P. aeruginosa); conditions: 30 seconds
Method: (§1) A membrane filter biofilm model was used to study the effect of Rose Bengal concentration on the efficacy of biofilm staining. Briefly, a 5 μl volume of a 5×10^5 cfu/ml suspension of S. aureus or P. aeruginosa was added to the centre of sterile membrane filter discs (pore size 0.2 μm; Anodise, Whatman) which were placed onto 7 ml volumes of sterile Tryptic Soya Broth in lidded 6-well plates. Samples were incubated for 4 hours (immature biofilms), and 24 and 48 hours (mature biofilms), and excess planktonic cells were rinsed from the filters. The biofilms on the filters were stained by pipetting 2 ml volumes of Rose Bengal (60 μM or 300 μM) or saline (negative control) for 30 seconds, followed by rinsing. Rose Bengal was recovered from the biofilm samples by stomaching and overnight digestion in 2% sodium dodecyl sulphate, centrifugation, then measuring of absorption spectra in a UV-vis spectrophotometer. Rose Bengal uptake per sample was determined by comparison of absorption values with a standard curve of Rose Bengal in 2% SDS. […] Only at the highest concentrations of 300 μM did the immature, 4-hour biofilms appear to be stained, although this was likely due to some staining of the filters themselves. […] This simple method for quantifying the uptake of Rose Bengal by biofilms utilises the absorption spectra of the dye. Using the absorption spectra to quantify the dye is similar to detecting the fluorescence using a light source with optical filters. Uptake could then alternatively be observed qualitatively using the naked eye or by observing the fluorescence emission of the Rose Bengal in conjunction with a light source and optical filter.

S. aureus biofilms = assay: Rose Bengal staining of biofilms, membrane filter biofilm model (S. aureus); conditions: 30 seconds
Method: as §1

[2] = test system: mixed biofilms of Staphylococcus aureus and Pseudomonas aeruginosa; assay: Assessment of biofilm stains using the CDC biofilm reactor; conditions: 100 μM stain, two minutes, 48 hour mixed biofilms, n=9
Method: A Centre for Disease Control (CDC) biofilm reactor was used to culture 48 hour mixed biofilms of Staphylococcus aureus and Pseudomonas aeruginosa. Briefly, biofilms were formed on coupons on reactor rods which were held within the reactor vessel containing a continuously mixed culture of S. aureus and P. aeruginosa at 35° C. Biofilm-containing coupons were removed from the rods, rinsed once by dipping in sterile saline for 5 seconds, then incubated in 10 ml volumes of the following biofilm stains at 100 μM concentration in deionised water, in the dark for two minutes: Erythrosine; Rose Bengal; Alcian Blue; Rhodamine B; Rhodamine 123; Rose Bengal with 2% w/v EDTA and 1% w/v BaCl (RBEB). Following another rinse in saline, nine coupons for each stain were each added to 2 ml volumes of 2% SDS for stomaching at ‘high’ setting for 1 minute then incubated overnight in the dark at 37° C., for digestion. Samples were then spun at 13,000 rpm for 5 minutes to separate the supernatant from digested cell debris. Absorption spectra of the aspired supernatants were then measured in a spectrophotometer and these spectra compared to spectra of known concentrations (100 μM) of each stain in 2% SDS.

[3] = P. aeruginosa biofilm age 4 h, [RB] 60 μM
[4] = S. aureus biofilm age 4 h, [RB] 60 μM

CCN(Cc1cccc(S(=O)(=O)[O-])c1)c1ccc(C(=C2C=CC(=[N+](CC)Cc3cccc(S(=O)(=O)[O-])c3)C=C2)c2ccc(O)cc2S(=O)(=O)[O-])cc1.[Na+].[Na+] [Fast Green]
effectiveness as stain of biofilms grown in the CDFF (FIG. 1) [1]: most effective stain

O=C([O-])c1c(Cl)c(Cl)c(Cl)c(Cl)c1-c1c2cc(I)c(=O)c(I)c-2oc2c(I)c([O-])c(I)cc12.[Na+].[Na+] [Rose Bengal]
Rose Bengal uptake per sample, Avg (P. aeruginosa biofilms; [3]): 0 | Rose Bengal uptake per sample, single replicates 1-3 (P. aeruginosa biofilms; [3]): 0 | Rose Bengal uptake per sample, Avg (P. aeruginosa biofilms; P. aeruginosa biofilm age 4 h, [RB] 300 μM, likely some staining of the filters themselves): 1.72 | Rose Bengal uptake per sample, single replicates 1-3 (P. aeruginosa biofilms; P. aeruginosa biofilm age 4 h, [RB] 300 μM, likely some staining of the filters themselves, listed as RB): 1.52 and 1.76 and 1.88 | Rose Bengal uptake per sample, Avg (P. aeruginosa biofilms; P. aeruginosa biofilm age 24 h, [RB] 60 μM): 1.94 | Rose Bengal uptake per sample, single replicates 1-3 (P. aeruginosa biofilms; P. aeruginosa biofilm age 24 h, [RB] 60 μM, listed as RB): 2.04 and 1.76 and 2.02 | Rose Bengal uptake per sample, Avg (P. aeruginosa biofilms; P. aeruginosa biofilm age 24 h, [RB] 300 μM): 5.10 | Rose Bengal uptake per sample, single replicates 1-3 (P. aeruginosa biofilms; P. aeruginosa biofilm age 24 h, [RB] 300 μM, listed as RB): 5.05 and 5.84 and 4.41 | Rose Bengal uptake per sample, Avg (P. aeruginosa biofilms; P. aeruginosa biofilm age 48 h, [RB] 60 μM): 2.39 | Rose Bengal uptake per sample, single replicates 1-3 (P. aeruginosa biofilms; P. aeruginosa biofilm age 48 h, [RB] 60 μM, listed as RB): 3.15 and 1.66 and 2.37 | Rose Bengal uptake per sample, Avg (P. aeruginosa biofilms; P. aeruginosa biofilm age 48 h, [RB] 300 μM): 7.30 | Rose Bengal uptake per sample, single replicates 1-3 (P. aeruginosa biofilms; P. aeruginosa biofilm age 48 h, [RB] 300 μM, listed as RB): 6.20 and 9.01 and 6.69 | Rose Bengal uptake by mature biofilms (in words) (P. aeruginosa biofilms; P. aeruginosa, 24 and 48 hours biofilms, 60 μM or 300 μM): dye concentration- and biofilm age-dependent manner | Rose Bengal uptake per sample, Avg (S. aureus biofilms; [4]): 0 | Rose Bengal uptake per sample, single replicates 1-3 (S. aureus biofilms; [4]): 0 | Rose Bengal uptake per sample, Avg (S. aureus biofilms; S. aureus biofilm age 4 h, [RB] 300 μM, likely some staining of the filters themselves): 1.56 | Rose Bengal uptake per sample, single replicates 1-3 (S. aureus biofilms; S. aureus biofilm age 4 h, [RB] 300 μM, likely some staining of the filters themselves, listed as RB): 1.59 and 1.45 and 1.64 | Rose Bengal uptake per sample, Avg (S. aureus biofilms; S. aureus biofilm age 24 h, [RB] 60 μM): 1.85 | Rose Bengal uptake per sample, single replicates 1-3 (S. aureus biofilms; S. aureus biofilm age 24 h, [RB] 60 μM, listed as RB): 1.66 and 1.72 and 2.17 | Rose Bengal uptake per sample, Avg (S. aureus biofilms; S. aureus biofilm age 24 h, [RB] 300 μM): 4.44 | Rose Bengal uptake per sample, single replicates 1-3 (S. aureus biofilms; S. aureus biofilm age 24 h, [RB] 300 μM, listed as RB): 4.82 and 4.55 and 3.95 | Rose Bengal uptake per sample, Avg (S. aureus biofilms; S. aureus biofilm age 48 h, [RB] 60 μM): 1.24 | Rose Bengal uptake per sample, single replicates 1-3 (S. aureus biofilms; S. aureus biofilm age 48 h, [RB] 60 μM, listed as RB): 1.22 and 1.12 and 1.37 | Rose Bengal uptake per sample, Avg (S. aureus biofilms; S. aureus biofilm age 48 h, [RB] 300 μM): 5.72 | Rose Bengal uptake per sample, single replicates 1-3 (S. aureus biofilms; S. aureus biofilm age 48 h, [RB] 300 μM, listed as RB): 6.26 and 5.18 and 5.71 | Rose Bengal uptake by mature biofilms (in words) (S. aureus biofilms; S. aureus, 24 and 48 hours biofilms, 60 μM or 300 μM): dye concentration- and biofilm age-dependent manner

Alcian Blue
biofilm staining expressed as ratio of measured absorption: absorption at 100 1.1M (i.e. concentration) (FIG. 2b) [2]: most effective biofilm stain
